Test results published in patent US20170173069A1, “METHODS OF NUCLEOTIDE AND GENE DELIVERY USING MEMBRANE TRANSPORT MECHANISMS” (The Charlotte Mecklenburg Hospital Authority d/b/a …, priority 2015, published 2017).

Tested on: dystrophin exon 23
Assay: Dystrophin expression (immunostaining of muscle sections) in mdx dystrophic mice after antisense oligonucleotide PMOE23
Assay type: in vivo, mouse
Procedure: The mdx dystrophic mouse contains a nonsense point mutation in the dystrophin exon 23. PMOE23 (5′[…]-3′) (SEQ ID NO:1) oligo binds to the exon-intron boundary of the dystrophin exon 23, resulting in the skip of the exon 23 and restoration of the reading frame and the expression of the dystrophin protein. The mdx mice are treated with antisense oligonuleotide PMOE23 (5′[…]-3′) (SEQ ID NO:1) via intravenous injection and the muscles are examined 2 weeks later. Saline treated, mouse was treated with saline without PMO as control. PMO only, mouse was treated with single dose 1 mg PMO only. PMO+Repa, mouse was treated with single dose 1 mg PMO and Repaglinide. 100 microgram Repaglinide was gavaged before the injection of PMO. Quad, quadriceps. Blue are DAPI stained nuclei; red staining representing membrane localized dystrophin expression.
A comparison of levels of dystrophin expression after treatment with morpholino antisense oligonucleotide PMOE23 and Eicosapentaenoic acid (EPA)-linked PMOE23 in 4-6 weeks old mdx dystrophic mice. […] PMOE23 (5′[…]-3′) (SEQ ID NO:1) oligo binds to the exon-intron boundary of the dystrophin exon 23, resulting in the skip of the exon 23 and restoration of the reading frame and the expression of the dystrophin protein. […] 6 μm sections were cut from freshly frozen muscles and stained with rabbit anti-dystrophin antibody P7 and detected with goat-anti-rabbit Ig-Alexa 594. […] Images were taken by Olympus BX52 fluorescence microscope.
A comparison of levels of dystrophin expression after treatment with morpholino antisense oligonucleotide PMOE23 and PMOE23 in combination with the use of insulin in 4-6 weeks old mdx dystrophic mice. […] PMOE23 (5′[…]-3′) (SEQ ID NO:1) oligo binds to the exon-intron boundary of the dystrophin exon 23, resulting in the skip of the exon 23 and restoration of the reading frame and the expression of the dystrophin protein. […] 6 μm sections were cut from freshly frozen muscles and stained with rabbit anti-dystrophin antibody P7 and detected with goat-anti-rabbit Ig-Alexa 594. […] Images were taken by Olympus BX52 fluorescence microscope.

PMO only: morpholino antisense oligonucleotide PMOE23, 5′GGCCAAACCTCGGCTTACCTGAAAT-3′ (SEQ ID NO:1), skips dystrophin exon 23 (all phosphorodiamidate morpholino (PMO))
number of dystrophin positive fibers / membrane localized dystrophin expression in muscle (Example 1, FIG. 1: mdx mice, single dose 1 mg PMO intravenous, 100 microgram Repaglinide gavaged before PMO, muscles examined 2 weeks later): only a few muscle fibers expressing weak dystrophin
number of dystrophin positive fibers / membrane localized dystrophin expression in muscle (Example 2, FIG. 2: 4-6 weeks old mdx mice, single intravenous dose 1 mg PMOE23 or 0.7 mg EPA-linked PMOE23, muscles examined 2 weeks later, antibody P7): only a few muscle fibers expressing weak dystrophin
number of dystrophin positive fibers / membrane localized dystrophin expression in muscle (Example 3, FIG. 3: 4-6 weeks old mdx mice, single intravenous dose 1 mg PMOE23, 0.5 unit Insulin subcutaneously immediately after PMO, muscles examined 2 weeks later, antibody P7): only a few muscle fibers expressing weak dystrophin
